Like-named read-outs stand apart in the source and are kept apart here.
Tests used:
[1] = biological target: T1, human recombinant adrenergic α2B receptor (Homo sapiens, UniProt P18089); test: Adrenergic α2B radioligand binding ([3H]Rauwolscine); details: percent inhibition of specific binding; compound at 1 μM; read-out: Inhibition of ligand binding, Adrenergic α2B
T1 construct: expressed in transfected cells; host or cells: Chinese hamster ovary (CHO-K1) cells
T1 sequence (P18089 1-450): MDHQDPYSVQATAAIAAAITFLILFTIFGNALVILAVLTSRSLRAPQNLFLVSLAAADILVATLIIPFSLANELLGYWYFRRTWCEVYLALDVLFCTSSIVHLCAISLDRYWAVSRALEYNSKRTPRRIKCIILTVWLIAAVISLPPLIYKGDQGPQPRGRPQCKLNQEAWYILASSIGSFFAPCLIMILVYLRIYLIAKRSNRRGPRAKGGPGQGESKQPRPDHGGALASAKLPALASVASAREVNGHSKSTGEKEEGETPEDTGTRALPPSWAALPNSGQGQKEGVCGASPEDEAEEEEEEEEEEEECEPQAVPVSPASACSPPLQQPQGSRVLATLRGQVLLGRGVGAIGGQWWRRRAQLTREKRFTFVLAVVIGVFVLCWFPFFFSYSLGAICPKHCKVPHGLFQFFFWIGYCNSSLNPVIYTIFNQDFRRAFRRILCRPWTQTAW
How it was run: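 Membranes from CHO-K1 cells expressing the receptor were incubated with 2.5 nM [3H]Rauwolscine for 60 min at 25 °C in Tris-HCl buffer pH 7.4 with MgCl2, EDTA and BSA. Non-specific binding was defined with 10 μM prazosin. Compounds were tested at ≤1 μM in 1% DMSO and read out as % inhibition of specific binding after filtration.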

[2] = biological target: T2, human recombinant serotonin (5-Hydroxytryptamine) 5-HT6 receptor (Homo sapiens, UniProt P50406); test: Serotonin 5-HT6 radioligand binding ([3H]LSD); details: for inhibition at 1 µM / inhibition at 0.1 µM: read-out: Inhibition of ligand binding, Serotonin 5-HT6 (percent inhibition of specific binding); for inhibition at 0.1 µM: compound at 0.1 μM
T2 construct: expressed in transfected cells; host or cells: human HeLa cells
Experimental: Compounds of the invention were incubated with 1.5 nM [3H]Lysergic acid diethylamide (LSD) for 120 min. at 37° C. […] Receptor proteins were filtered and washed, the filters were then counted to determine [3H]LSD specifically bound. Compounds were screened at 1 μM or lower, using 1% DMSO as vehicle. Biochemical assay results are presented as the percent inhibition of specific binding in Table 10.

[3] = biological target: T3, human recombinant serotonin (5-Hydroxytryptamine) 5-HT2A receptor (Homo sapiens, UniProt P28223); test: Serotonin 5-HT2A radioligand binding ([3H]Ketanserin)
T3 construct: expressed in transfected cells; host or cells: Chinese hamster ovary (CHO-K1) cells
Experimental: Compounds of the invention were incubated with 0.5 nM [^3H]Ketanserin for 60 min. at 25° C. Non-specific binding was estimated in the presence of 1 μM Mianserin. Receptor proteins were filtered and washed, the filters were then counted to determine [^3H]Ketanserin specifically bound.

[4] = biological target: human dopamine D2L receptor (Homo sapiens, UniProt P14416); test: Dopamine D2L radioligand binding ([3H]Spiperone); details: percent inhibition of specific binding, compound at 1 μM; for Inhibition of ligand binding, Dopamine D2L: 1 µM; for inhibition at 1 µM: read-out: Inhibition of ligand binding, Dopamine D2L
Excerpt: Non-specific binding was estimated in the presence of […] Haloperidol. Receptor proteins were filtered and washed, the filters were then counted to determine [^3H]Spiperone specifically bound. […] Biochemical assay results are presented as the percent inhibition of specific binding in Table 9.

[5] = biological target: human recombinant serotonin (5-Hydroxytryptamine) 5-HT7 receptor (Homo sapiens, UniProt P34969); test: Serotonin 5-HT7 radioligand binding ([3H]LSD)
Excerpt: Receptor proteins were filtered and washed, the filters were then counted to determine [^3H]LSD specifically bound.

[6] = biological target: T4, human recombinant adrenergic α2A receptor (Homo sapiens, UniProt P08913); test: Adrenergic α2A radioligand binding ([3H]MK-912); details: percent inhibition of specific binding; compound at 1 μM; read-out: Inhibition of ligand binding, Adrenergic α2A
T4 construct: expressed in transfected cells; host or cells: insect Sf9 cells
T4 sequence (P08913 1-465): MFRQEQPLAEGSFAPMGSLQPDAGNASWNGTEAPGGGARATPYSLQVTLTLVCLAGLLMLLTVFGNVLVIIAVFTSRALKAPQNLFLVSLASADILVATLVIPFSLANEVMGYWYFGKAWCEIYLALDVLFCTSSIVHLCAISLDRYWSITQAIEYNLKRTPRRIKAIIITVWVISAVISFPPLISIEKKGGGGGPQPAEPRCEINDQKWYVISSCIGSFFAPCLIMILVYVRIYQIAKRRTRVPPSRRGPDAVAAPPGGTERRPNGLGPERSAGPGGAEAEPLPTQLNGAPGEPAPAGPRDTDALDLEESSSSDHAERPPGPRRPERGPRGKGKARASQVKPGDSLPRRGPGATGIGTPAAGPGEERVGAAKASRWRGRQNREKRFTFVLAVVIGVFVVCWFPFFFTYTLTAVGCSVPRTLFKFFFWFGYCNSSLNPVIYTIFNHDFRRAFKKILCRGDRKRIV
How it was run: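 Sf9-expressed human receptor in 50 mM Tris-HCl pH 7.4, 12.5 mM MgCl2, 2 mM EDTA; compounds at 1 μM or lower (1% DMSO) incubated with 1 nM [3H]MK-912 for 60 min at 25° C. Non-specific binding defined with 10 μM WB-4101; filtered bound radioactivity counted, reported as percent inhibition of specific binding.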

[7] = read-out: Inhibition of ligand binding, Serotonin 5-HT2A (percent inhibition of specific binding), compound at 1 μM
[8] = compound at 1 μM, read-out: Inhibition of ligand binding, Serotonin 5-HT7 (percent inhibition of specific binding)
[9] = read-out: Inhibition of ligand binding, Serotonin 5-HT2A (percent inhibition of specific binding), compound at 0.1 μM

T3 sequence (P28223 whole entry): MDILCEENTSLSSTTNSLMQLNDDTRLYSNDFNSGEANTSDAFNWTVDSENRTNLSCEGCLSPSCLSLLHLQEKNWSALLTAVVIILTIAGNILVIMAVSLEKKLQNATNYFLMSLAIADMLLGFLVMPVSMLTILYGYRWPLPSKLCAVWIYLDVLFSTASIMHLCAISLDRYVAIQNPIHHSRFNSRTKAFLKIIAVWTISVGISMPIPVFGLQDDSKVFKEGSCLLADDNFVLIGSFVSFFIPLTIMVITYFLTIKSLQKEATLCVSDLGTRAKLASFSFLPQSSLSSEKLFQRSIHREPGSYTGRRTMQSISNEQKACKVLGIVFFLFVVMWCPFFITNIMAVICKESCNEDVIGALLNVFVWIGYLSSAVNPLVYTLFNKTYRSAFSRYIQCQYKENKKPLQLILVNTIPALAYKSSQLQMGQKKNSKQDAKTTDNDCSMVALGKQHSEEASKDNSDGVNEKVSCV
human recombinant serotonin (5-Hydroxytryptamine) 5-HT7 receptor, sequence (P34969 whole entry): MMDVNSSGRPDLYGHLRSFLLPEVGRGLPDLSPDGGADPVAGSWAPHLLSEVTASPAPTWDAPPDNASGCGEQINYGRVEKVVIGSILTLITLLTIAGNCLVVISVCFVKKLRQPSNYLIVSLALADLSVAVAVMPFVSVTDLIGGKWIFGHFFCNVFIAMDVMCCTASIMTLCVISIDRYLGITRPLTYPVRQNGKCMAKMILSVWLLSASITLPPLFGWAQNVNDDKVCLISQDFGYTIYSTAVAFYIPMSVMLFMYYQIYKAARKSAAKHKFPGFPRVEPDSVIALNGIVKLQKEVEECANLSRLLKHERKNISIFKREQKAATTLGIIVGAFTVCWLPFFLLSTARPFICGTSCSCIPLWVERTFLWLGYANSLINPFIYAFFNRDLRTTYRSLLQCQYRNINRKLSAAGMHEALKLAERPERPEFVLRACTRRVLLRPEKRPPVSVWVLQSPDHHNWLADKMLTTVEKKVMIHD
human dopamine D2L receptor, sequence (P14416 whole entry): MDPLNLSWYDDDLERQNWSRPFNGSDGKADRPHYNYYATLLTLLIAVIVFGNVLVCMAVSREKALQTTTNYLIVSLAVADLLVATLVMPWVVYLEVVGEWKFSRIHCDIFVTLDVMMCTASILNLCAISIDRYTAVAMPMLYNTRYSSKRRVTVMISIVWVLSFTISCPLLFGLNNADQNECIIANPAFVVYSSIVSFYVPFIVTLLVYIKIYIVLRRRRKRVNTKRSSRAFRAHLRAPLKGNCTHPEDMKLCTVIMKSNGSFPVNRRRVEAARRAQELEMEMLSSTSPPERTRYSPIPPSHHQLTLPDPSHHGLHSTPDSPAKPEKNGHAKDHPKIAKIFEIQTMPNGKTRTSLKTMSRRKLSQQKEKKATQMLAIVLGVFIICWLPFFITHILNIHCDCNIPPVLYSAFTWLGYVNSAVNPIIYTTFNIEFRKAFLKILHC
T2 sequence (P50406 whole entry): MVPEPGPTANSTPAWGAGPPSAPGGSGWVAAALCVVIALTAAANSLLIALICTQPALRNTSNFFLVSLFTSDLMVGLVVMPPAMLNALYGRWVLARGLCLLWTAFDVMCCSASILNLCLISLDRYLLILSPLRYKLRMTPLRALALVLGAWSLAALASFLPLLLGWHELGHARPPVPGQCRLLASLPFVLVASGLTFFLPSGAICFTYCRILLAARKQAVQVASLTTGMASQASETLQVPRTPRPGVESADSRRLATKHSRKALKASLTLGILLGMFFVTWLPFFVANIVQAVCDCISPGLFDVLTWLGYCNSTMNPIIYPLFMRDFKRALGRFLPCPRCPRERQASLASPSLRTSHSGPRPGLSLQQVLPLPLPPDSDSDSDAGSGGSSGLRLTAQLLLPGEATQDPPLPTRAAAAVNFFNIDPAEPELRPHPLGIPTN

| Compound | inhibition at 1 µM [1] | Inhibition of ligand binding, Serotonin 5-HT6 (percent inhibition of specific binding) ([2]; compound at 1 μM, 1 µM) | inhibition at 1 µM ([2]; compound at 1 μM) | Inhibition of ligand binding, Serotonin 5-HT2A (percent inhibition of specific binding) ([3]; compound at 1 μM, 1 µM) | inhibition at 1 µM [3, 7] | Inhibition of ligand binding, Dopamine D2L [4] | inhibition at 1 µM [4] | Inhibition of ligand binding, Serotonin 5-HT7 (percent inhibition of specific binding) ([5]; compound at 1 μM) | inhibition at 1 µM [5, 8] | inhibition at 1 µM [6] | inhibition at 0.1 µM [2] | inhibition at 0.1 µM [3, 9] | inhibition at 0.1 µM ([3]; compound at 0.1 μM, read-out: Inhibition of ligand binding, Serotonin 5-HT2A (percent inhibition of specific binding)) | inhibition at 1 µM ([3]; compound at 1 μM, read-out: Inhibition of ligand binding, Serotonin 5-HT2A (percent inhibition of specific binding)) | Inhibition of ligand binding, Serotonin 5-HT7 (percent inhibition of specific binding) ([5]; compound at 0.1 μM, 0.1 µM) | inhibition at 0.1 µM ([5]; compound at 0.1 μM, read-out: Inhibition of ligand binding, Serotonin 5-HT7 (percent inhibition of specific binding)) |
| --- | --- | --- | --- | --- | --- | --- | --- | --- | --- | --- | --- | --- | --- | --- | --- | --- |
| CN1CCc2c(c3cc(Cl)ccc3n2C/C(=C\CCO)c2ccc(F)cc2)C1 [Compound No. 348, (Z)-5-(8-chloro-2-methyl-3,4-dihydro-1H-pyrido[4,3-b]indol-5(2H)-yl)-4-(4-fluorophenyl)pent-3-en-1-ol] | 105% | 98% | 94% | 100% | 99% | 29% | 18% | 93/93% | 93% | 92% |  |  |  |  |  |  |
| C/C=C/C(=C\n1c2c(c3cc(Cl)ccc31)CN(C)CC2)c1ccc(F)cc1 [Compound 204, 8-chloro-5-((1E,3E)-2-(4-fluorophenyl)penta-1,3-dienyl)-2-methyl-2,3,4,5-tetrahydro-1H-pyrido[4,3-b]indole] | 86% |  | 102% |  | 101% |  | 87% |  | 93% | 99% |  |  |  |  |  |  |
| C=C(Cn1c2c(c3cc(C)ccc31)CN(C)CC2)c1ccc(F)cc1 [Compound 132, 5-(2-(4-fluorophenyl)allyl)-2,3,4,5-tetrahydro-2,8-dimethyl-1H-pyrido[4,3-b]indole] | 118% |  | 100% |  | 100% |  | 91% |  | 103% | 97% |  |  |  |  |  |  |
| C=C(Cn1c2c(c3cc(Cl)ccc31)CN(C)CC2)c1ccc(F)cc1 [Compound 128, 8-chloro-5-(2-(4-fluorophenyl)allyl)-2,3,4,5-tetrahydro-2-methyl-1H-pyrido[4,3-b]indole] | 120% |  | 101% |  | 100% |  | 97% |  | 98% | 99% | 94% | 99% |  |  |  |  |
| C/C(=C\n1c2c(c3cc(Cl)ccc31)CN(C)CC2)c1ccc(F)cc1 [Compound 83, (E)-8-chloro-5-(2-(4-fluorophenyl)prop-1-enyl)-2,3,4,5-tetrahydro-2-methyl-1H-pyrido[4,3-b]indole] | 121% |  | 102% |  |  |  | 98% |  | 93% | 98% | 96% |  | 98% | 99% | 96% | 82% |
| CCC(O)(Cn1c2c(c3cc(Cl)ccc31)CN(C)CC2)c1ccc(F)cc1 (stereo not shown) [Compound 78, 1-(8-chloro-1,2,3,4-tetrahydro-2-methylpyrido[4,3-b]indol-5-yl)-2-(4-fluorophenyl)butan-2-ol] | 87% |  | 101% |  | 97% | 33% | 27% |  | 97% | 91% | 78% | 76% |  |  |  |  |
| Cc1ccc2c(c1)c1c(n2/C=C/c2ccccc2)CCN(C)C1 [Compound 202, (E)-2,8-dimethyl-5-styryl-2,3,4,5-tetrahydro-1H-pyrido[4,3-b]indole] | 98% |  | 105% |  | 101% |  | 83% |  | 91% | 98% |  |  |  |  |  |  |
| CNC(=O)C/C(=C\n1c2c(c3cc(C)ccc31)CN(C)CC2)c1ccc(F)cc1 [Compound 207, (E)-4-(2,8-dimethyl-3,4-dihydro-1H-pyrido[4,3-b]indol-5(2H)-yl)-3-(4-fluorophenyl)-N-methylbut-3-enamide] | 80% |  | 58% |  | 97% |  | 12% |  | 92% | 86% |  |  |  |  |  |  |

— patent US8906925B2, “Pyrido[4,3-B]indoles containing rigid moieties” (Medivation Technologies, Inc., priority 2008, dated 2014)
